Experimental data as given in patent US20100215696A1, “E[…] C VIRUS MUTANT, A HEPTITIS C VIRUS MUTANT […] GENE, A METHOD OF PREPARING OF HCV VACCINE USING THE SAME AND A METHOD OF SCREENING ANTI HCV COMPOSITION USING THE SAME” (priority 2007, published 2010).

System: JFH 5a-GFP
Assay: Real time assessment of anti-viral activity in individual JFH 5a-GFP infected Huh 7.5.1 cells (time-lapse confocal GFP fluorescence)
Format: cell-based, hepatitis C virus
Details: 1000 IU/ml IFN-α, monitored every 12 hours up to 60 hours, FIGS. 13-16
Procedure: Huh 7.5.1 cells were infected with culture supernatant obtained from the transformant transfected with JFH 5a-GFP RNA (the transformant was transformed with the introduction of JFH 5a-GFP RNA via electroporation into Huh 7.5.1 cells, in Example 2-1).
After treating or mock-treating (i.e., no IFN-α treated) the transformant with IFN-α, GFP fluorescence was monitored every 12 hours up to 60 hours by using time-lapse confocal microscopy (Zeiss LSM 5 Live). For time-lapse imaging, coverslips were mounted onto the microscope stage, which was equipped with a temperature- and gas-controlled chamber (Chamide IC, Live Cell Instrument, Korea).
In addition, quantitative analyses of the fluorescence images of 8 cells were made by using MetaMorph software. The grouping of the figures was made depending on whether the cell was treated with IFN-α.
FIGS. 10 and 14 are graphs showing changing fluorescence levels in 8 transformants, in absolute values. FIGS. 11 and 15 are graphs showing changing fluorescence levels over time in 8 transformants, in relative values against the starting value, i.e., the value given to the transformants with no IFN-α treated.

Substance: Interferon-alpha [IFN-α]
- 5a-GFP fluorescence intensities over time in 8 transformants: seven among eight transformants showed decreasing fluorescence intensities over time
